How the values were obtained:
[1] = DRUGMATRIX: Interleukin IL-1 radioligand binding (ligand: [125I] interleukin 1beta); type: cell membranes, Membrane; conditions: nih3t3; Not Active = under 50% inhibition at 10 µM
[2] = target: T1, Progesterone receptor (Bos taurus, UniProt Q690N0); test: DRUGMATRIX: Progesterone radioligand binding (ligand: [3H] R-5020); type: tissue-based, Uterus; conditions: Not Active = under 50% inhibition at 10 µM
T1 sequence (Q690N0 whole entry): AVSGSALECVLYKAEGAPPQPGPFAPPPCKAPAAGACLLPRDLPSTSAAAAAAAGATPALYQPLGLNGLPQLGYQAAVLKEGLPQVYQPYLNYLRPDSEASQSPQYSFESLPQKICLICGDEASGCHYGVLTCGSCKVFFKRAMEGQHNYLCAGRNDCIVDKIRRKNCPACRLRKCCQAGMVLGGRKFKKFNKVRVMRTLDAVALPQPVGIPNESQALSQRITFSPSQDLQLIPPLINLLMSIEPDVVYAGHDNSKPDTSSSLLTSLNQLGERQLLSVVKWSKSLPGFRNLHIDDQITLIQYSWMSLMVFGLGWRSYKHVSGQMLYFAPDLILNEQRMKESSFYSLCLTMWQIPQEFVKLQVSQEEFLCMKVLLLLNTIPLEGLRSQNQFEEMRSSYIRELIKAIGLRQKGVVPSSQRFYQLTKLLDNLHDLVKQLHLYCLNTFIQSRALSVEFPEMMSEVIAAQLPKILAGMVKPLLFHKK

[3] = target: T2, Neuropeptide Y receptor type 1 (Homo sapiens, UniProt P25929); type: cell membranes, Membrane; conditions: sk-n-mc; note: in other assays of this panel Not Active means under 50% inhibition at 10 µM
T2 sequence (P25929 whole entry): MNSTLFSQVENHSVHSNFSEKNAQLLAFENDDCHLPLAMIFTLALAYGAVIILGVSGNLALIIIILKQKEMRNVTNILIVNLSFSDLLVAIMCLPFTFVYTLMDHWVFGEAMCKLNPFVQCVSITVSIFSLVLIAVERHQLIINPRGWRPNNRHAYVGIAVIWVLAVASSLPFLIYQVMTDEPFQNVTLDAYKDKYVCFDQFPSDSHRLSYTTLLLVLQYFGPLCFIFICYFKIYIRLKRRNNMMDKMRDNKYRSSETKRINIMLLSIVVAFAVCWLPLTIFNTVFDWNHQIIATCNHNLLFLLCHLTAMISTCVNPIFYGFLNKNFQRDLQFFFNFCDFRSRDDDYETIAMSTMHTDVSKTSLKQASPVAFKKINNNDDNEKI

[4] = DRUGMATRIX: beta-Lactamase enzyme inhibition (substrate: Nitrocefin); design: species or system Bacillus cereus; conditions: Not Active = under 50% inhibition at 10 µM
[5] = target: Delta-type opioid receptor (Homo sapiens, UniProt P41143); type: cell membranes, HEK293, Membrane; conditions: hek293; note: in other assays of this panel Not Active means under 50% inhibition at 10 µM
Chain of Delta-type opioid receptor (P41143 whole entry): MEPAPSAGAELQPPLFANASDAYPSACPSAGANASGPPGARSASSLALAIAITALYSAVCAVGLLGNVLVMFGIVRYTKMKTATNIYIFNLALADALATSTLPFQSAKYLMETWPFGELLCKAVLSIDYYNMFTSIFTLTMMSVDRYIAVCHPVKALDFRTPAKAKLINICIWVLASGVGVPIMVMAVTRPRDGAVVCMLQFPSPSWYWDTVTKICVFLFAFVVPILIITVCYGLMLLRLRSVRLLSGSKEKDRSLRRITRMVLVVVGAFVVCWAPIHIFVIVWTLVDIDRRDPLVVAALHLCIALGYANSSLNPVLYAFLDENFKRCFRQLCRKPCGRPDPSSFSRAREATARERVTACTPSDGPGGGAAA

[6] = target: Beta-1 adrenergic receptor (Homo sapiens, UniProt P08588); test: DRUGMATRIX: Adrenergic beta1 radioligand binding (ligand: [125I] Cyanopindolol); type: cell membranes, CHO-K1, Membrane; conditions: cho-k1; Not Active = under 50% inhibition at 10 µM
Chain of Beta-1 adrenergic receptor (P08588 whole entry): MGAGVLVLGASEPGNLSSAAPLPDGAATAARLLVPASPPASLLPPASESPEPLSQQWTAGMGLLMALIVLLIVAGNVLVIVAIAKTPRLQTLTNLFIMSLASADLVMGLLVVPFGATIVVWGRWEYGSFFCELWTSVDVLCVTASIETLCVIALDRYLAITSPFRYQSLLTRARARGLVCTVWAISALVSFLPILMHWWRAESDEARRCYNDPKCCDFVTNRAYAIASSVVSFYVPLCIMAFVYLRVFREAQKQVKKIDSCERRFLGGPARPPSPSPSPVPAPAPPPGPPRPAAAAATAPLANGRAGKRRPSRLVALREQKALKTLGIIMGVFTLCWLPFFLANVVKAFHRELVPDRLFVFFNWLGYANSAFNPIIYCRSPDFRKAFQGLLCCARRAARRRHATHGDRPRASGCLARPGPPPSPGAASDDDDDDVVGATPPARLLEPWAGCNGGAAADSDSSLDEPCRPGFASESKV

[7] = target: T3, 5-hydroxytryptamine receptor 1A (Rattus norvegicus, UniProt P19327); type: cell membranes, CHO-K1, Membrane; conditions: cho-k1; note: in other assays of this panel Not Active means under 50% inhibition at 10 µM
T3 sequence (P19327 whole entry): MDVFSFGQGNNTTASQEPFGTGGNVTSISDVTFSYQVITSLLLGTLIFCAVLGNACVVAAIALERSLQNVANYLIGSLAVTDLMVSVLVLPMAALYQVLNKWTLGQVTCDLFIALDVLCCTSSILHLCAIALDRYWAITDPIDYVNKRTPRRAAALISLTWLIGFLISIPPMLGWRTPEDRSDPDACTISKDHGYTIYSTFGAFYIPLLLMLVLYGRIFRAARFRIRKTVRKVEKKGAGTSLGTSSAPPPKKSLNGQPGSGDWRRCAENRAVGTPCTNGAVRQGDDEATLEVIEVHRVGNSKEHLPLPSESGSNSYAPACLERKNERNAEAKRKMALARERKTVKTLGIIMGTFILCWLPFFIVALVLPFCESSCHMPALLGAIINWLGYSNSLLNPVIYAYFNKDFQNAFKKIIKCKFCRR

[8] = DRUGMATRIX: Leukotriene, BLT (LTB4) radioligand binding (ligand: [3H]LTB4); type: cell membranes, Membrane; conditions: u-937; Not Active = under 50% inhibition at 10 µM
[9] = target: Melanocortin receptor 3 (Homo sapiens, UniProt P41968); type: cell membranes, Membrane; conditions: hek293; note: in other assays of this panel Not Active means under 50% inhibition at 10 µM
Chain of Melanocortin receptor 3 (P41968 whole entry): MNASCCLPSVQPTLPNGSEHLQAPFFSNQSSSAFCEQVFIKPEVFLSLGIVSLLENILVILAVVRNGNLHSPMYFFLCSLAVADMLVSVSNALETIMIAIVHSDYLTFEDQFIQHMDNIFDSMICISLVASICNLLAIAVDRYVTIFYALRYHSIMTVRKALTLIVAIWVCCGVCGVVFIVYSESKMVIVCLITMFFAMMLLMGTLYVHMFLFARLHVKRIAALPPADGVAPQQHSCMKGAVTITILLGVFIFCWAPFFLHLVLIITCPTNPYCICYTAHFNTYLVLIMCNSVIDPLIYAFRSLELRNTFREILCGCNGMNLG

[10] = target: T4, Vasoactive intestinal polypeptide receptor 1 (Homo sapiens, UniProt P32241); type: cell membranes, Membrane; conditions: ht-29; note: in other assays of this panel Not Active means under 50% inhibition at 10 µM
T4 sequence (P32241 whole entry): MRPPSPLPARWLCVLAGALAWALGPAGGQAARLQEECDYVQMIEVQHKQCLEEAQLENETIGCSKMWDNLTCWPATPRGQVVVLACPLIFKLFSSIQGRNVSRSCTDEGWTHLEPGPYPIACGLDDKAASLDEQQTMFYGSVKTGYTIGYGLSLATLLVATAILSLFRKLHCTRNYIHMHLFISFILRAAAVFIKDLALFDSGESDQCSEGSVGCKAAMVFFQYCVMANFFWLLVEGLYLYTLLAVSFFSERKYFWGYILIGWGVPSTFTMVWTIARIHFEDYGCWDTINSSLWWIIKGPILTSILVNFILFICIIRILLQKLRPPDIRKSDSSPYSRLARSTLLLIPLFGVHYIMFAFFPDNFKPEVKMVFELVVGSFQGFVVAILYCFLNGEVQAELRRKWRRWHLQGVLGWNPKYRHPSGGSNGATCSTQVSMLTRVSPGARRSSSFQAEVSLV

[11] = target: Prostaglandin G/H synthase 1 (Homo sapiens, UniProt P23219); test: biochemical; type: tissue-based, Platelet; conditions: platelet
Chain of Prostaglandin G/H synthase 1 (P23219 whole entry): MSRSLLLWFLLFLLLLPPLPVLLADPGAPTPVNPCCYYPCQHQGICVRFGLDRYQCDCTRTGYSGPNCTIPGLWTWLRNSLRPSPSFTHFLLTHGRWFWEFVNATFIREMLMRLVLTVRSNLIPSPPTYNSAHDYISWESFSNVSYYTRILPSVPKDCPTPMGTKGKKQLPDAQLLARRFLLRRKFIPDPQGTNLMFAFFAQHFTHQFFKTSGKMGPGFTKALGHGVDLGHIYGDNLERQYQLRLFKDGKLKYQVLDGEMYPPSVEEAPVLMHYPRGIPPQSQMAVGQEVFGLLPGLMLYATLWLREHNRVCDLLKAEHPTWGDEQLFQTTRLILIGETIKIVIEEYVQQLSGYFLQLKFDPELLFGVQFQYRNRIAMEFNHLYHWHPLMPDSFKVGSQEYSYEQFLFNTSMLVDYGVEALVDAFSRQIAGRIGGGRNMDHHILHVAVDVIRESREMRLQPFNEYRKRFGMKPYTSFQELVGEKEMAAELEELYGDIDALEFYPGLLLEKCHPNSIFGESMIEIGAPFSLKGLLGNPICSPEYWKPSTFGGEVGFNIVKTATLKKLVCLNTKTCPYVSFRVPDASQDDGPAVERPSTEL

[12] = target: T5, C-C chemokine receptor type 4 (Homo sapiens, UniProt P51679); type: cell membranes, Membrane; conditions: chem-1; note: in other assays of this panel Not Active means under 50% inhibition at 10 µM
T5 sequence (P51679 whole entry): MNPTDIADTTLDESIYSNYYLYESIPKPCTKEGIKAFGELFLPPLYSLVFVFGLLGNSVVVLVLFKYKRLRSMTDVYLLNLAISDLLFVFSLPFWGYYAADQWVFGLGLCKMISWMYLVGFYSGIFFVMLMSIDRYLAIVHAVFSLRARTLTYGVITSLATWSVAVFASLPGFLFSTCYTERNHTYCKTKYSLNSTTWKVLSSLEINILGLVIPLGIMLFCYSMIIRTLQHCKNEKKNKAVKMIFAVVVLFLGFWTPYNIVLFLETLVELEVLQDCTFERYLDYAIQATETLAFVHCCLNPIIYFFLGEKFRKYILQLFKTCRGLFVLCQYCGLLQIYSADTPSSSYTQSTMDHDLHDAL

[13] = target: Melanocortin receptor 5 (Homo sapiens, UniProt P33032); type: cell membranes, HEK293, Membrane; conditions: hek293; note: in other assays of this panel Not Active means under 50% inhibition at 10 µM
Chain of Melanocortin receptor 5 (P33032 whole entry): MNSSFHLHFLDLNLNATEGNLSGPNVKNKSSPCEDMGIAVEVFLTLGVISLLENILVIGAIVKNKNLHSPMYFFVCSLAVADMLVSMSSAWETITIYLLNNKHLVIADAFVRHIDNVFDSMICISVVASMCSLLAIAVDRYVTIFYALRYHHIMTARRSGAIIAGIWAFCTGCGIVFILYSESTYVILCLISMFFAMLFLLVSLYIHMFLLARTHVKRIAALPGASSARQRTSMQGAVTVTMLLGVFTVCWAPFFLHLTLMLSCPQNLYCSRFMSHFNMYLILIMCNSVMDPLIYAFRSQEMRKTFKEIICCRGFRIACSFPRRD

[14] = DRUGMATRIX: Calcium Channel Type L, Dihydropyridine radioligand binding (ligand: [3H] Nitrendipine); type: cell membranes, Rattus norvegicus, Wistar, Cerebral cortex, Membrane; conditions: Not Active = under 50% inhibition at 10 µM

IVERMECTIN
Not Active: IC50 [1] | Ki [1] | IC50 [2] | Ki [2] | IC50 [3] | Ki [3] | IC50 [4] | Ki [4] | IC50 [5] | Ki [5] | IC50 [6] | Ki [6] | IC50 [7] | Ki [7] | IC50 [8] | Ki [8] | IC50 [9] | Ki [9] | IC50 [10] | Ki [10] | IC50 [11] | Ki [11] | IC50 [12] | Ki [12] | IC50 [13] | Ki [13] | IC50 [14] | Ki [14]

CO[C@@H]1[C@@H](O[C@@H]2O[C@H](C)[C@@H](O[C@H]3C[C@@](C)(O)[C@@H](OC(=O)CC(C)C)[C@H](C)O3)[C@H](N(C)C)[C@H]2O)[C@@H](CC=O)C[C@@H](C)[C@@H](O)/C=C/C=C/C[C@@H](C)OC(=O)C[C@H]1O [KITASAMYCIN]
Not Active: IC50 [1] | Ki [1] | IC50 [2] | IC50 [3] | IC50 [4] | Ki [4] | IC50 [5] | IC50 [6] | IC50 [7] | IC50 [8] | Ki [8] | IC50 [9] | IC50 [10] | IC50 [11] | IC50 [12] | IC50 [13] | IC50 [14] | Ki [14]

CN(N=O)C(=O)N[C@@H](C=O)[C@@H](O)[C@H](O)[C@H](O)CO [STREPTOZOCIN]
Not Active: IC50 [1] | Ki [1] | IC50 [2] | IC50 [3] | IC50 [4] | Ki [4] | IC50 [5] | IC50 [6] | IC50 [7] | IC50 [8] | Ki [8] | IC50 [9] | IC50 [10] | IC50 [11] | IC50 [12] | IC50 [13] | IC50 [14] | Ki [14]

O=C1c2c(O)ccc(O)c2C(=O)c2c(NCCNCCO)ccc(NCCNCCO)c21 [MITOXANTRONE]
Not Active: IC50 [1] | Ki [1] | IC50 [2] | IC50 [3] | IC50 [4] | Ki [4] | IC50 [5] | IC50 [6] | IC50 [7] | IC50 [8] | Ki [8] | IC50 [9] | IC50 [10] | IC50 [11] | IC50 [12] | IC50 [13] | IC50 [14] | Ki [14]

Nc1ccc(S(N)(=O)=O)cc1 [SULFANILAMIDE]
Not Active: IC50 [1] | Ki [1] | IC50 [2] | IC50 [3] | IC50 [4] | Ki [4] | IC50 [5] | IC50 [6] | IC50 [7] | IC50 [8] | Ki [8] | IC50 [9] | IC50 [10] | IC50 [11] | IC50 [12] | IC50 [13] | IC50 [14] | Ki [14]

CC[C@H]1OC(=O)[C@H](C)[C@@H](O[C@H]2C[C@@](C)(OC)[C@@H](O)[C@H](C)O2)[C@H](C)[C@@H](O[C@@H]2O[C@H](C)C[C@H](N(C)C)[C@H]2O)[C@](C)(O)C[C@@H](C)/C(=N\OCOCCOC)[C@H](C)[C@@H](O)[C@]1(C)O [ROXITHROMYCIN]
Not Active: IC50 [1] | Ki [1] | IC50 [2] | IC50 [3] | IC50 [4] | Ki [4] | IC50 [5] | IC50 [6] | IC50 [7] | IC50 [8] | Ki [8] | IC50 [9] | IC50 [10] | IC50 [11] | IC50 [12] | IC50 [13] | IC50 [14] | Ki [14]

COC(=O)c1ccc(O)cc1 [METHYLPARABEN]
Not Active: IC50 [1] | Ki [1] | IC50 [2] | IC50 [3] | IC50 [4] | Ki [4] | IC50 [5] | IC50 [6] | IC50 [7] | IC50 [8] | Ki [8] | IC50 [9] | IC50 [10] | IC50 [11] | IC50 [12] | IC50 [13] | IC50 [14] | Ki [14]

— ChEMBL document CHEMBL1909046, “DrugMatrix in vitro pharmacology data”
